Data reported in US11191762B2, “Alkyl substituted triazole compounds as agonists of the APJ Receptor” (priority 2016, dated 2021).

The compounds below were run against human APJ receptor (Homo sapiens (Human), UniProt P35414) (assay: biochemical). Settings: [35S]GTPγS binding, membranes from CHO cells stably expressing human APJ receptor; read-out: Activity hAPJ SPA EC50 IP.
Format: biochemical
Procedure: The human APJ receptor was cloned by polymerase chain reaction and the gene encoding the receptor was subcloned in pFLAG-CMV™-3 expression vector (Sigma, Saint Louis, Mo. USA) in-house at Amgen. A GTPγS binding assay was performed on membranes prepared from CHO cells stably expressing human APJ receptor. The optimum experimental conditions for the concentrations of GDP, MgCl2, and NaCl in the assay buffer were initially determined. The assay was performed in 9 μL assay buffer [20 mM HEPES, pH 7.5, 5 mM MgCl2, 100 mM NaCl and 0.1% (w/v) BSA], 1 μL of diluted test compound (starting with 0.75 mM, 2-fold serial dilution with DMSO, total 22 points), 10 μL of 18 µM GDP (final concentration of 3 μM GDP), 20 μL of […] membrane protein expressing human APJ receptor captured with WGA PS beads (final concentration of 5 μg per well), and 20 μL of 0.3 nM [^35S]GTPγS (final concentration is 0.1 nM [^35S]GTPγS)(Perkin Elmer Life and Analytical Sciences, Waltham USA).

human APJ receptor, sequence (P35414 whole entry): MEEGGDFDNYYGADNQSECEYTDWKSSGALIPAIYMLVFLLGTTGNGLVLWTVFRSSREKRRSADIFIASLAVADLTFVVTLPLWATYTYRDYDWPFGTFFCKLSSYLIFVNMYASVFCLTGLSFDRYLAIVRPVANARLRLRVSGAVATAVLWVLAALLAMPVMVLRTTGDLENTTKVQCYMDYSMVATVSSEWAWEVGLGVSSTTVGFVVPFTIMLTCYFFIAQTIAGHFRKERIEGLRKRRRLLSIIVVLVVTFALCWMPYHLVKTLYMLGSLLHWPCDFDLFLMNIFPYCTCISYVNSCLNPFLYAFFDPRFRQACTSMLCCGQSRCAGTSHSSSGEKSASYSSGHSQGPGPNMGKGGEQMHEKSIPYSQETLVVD

Row | SMILES | EC50 [nM]
1 | COc1cccc(OC)c1-n1c(Cc2cc[nH]n2)nnc1NS(=O)(=O)[C@@H](C)[C@H](C)c1ncc(Cl)cn1 [Example 39.0, (2S,3R)-3-(5-chloro-2-pyrimidinyl)-N-(4-(2,6-dimethoxyphenyl)-5-(1H-pyrazol-3-ylmethyl)-4H-1,2,4-triazol-3-yl)-2-butanesulfonamide] | 5.8
2 | COc1cccc(OC)c1-n1c(CC(C)(C)OC)nnc1NS(=O)(=O)[C@@H](C)[C@H](C)c1ncc(Cl)cn1 [Example 40.0, (2S,3R)-3-(5-chloro-2-pyrimidinyl)-N-(4-(2,6-dimethoxyphenyl)-5-(2-methoxy-2-methylpropyl)-4H-1,2,4-triazol-3-yl)-2-butanesulfonamide] | 110
3 | COc1cccc(OC)c1-n1c(CN2CCCC2=O)nnc1NS(=O)(=O)[C@@H](C)[C@H](C)c1ncc(Cl)cn1 [Example 41.0, (2S,3R)-3-(5-chloro-2-pyrimidinyl)-N-(4-(2,6-dimethoxyphenyl)-5-((2-oxo-1-pyrrolidinyl)methyl)-4H-1,2,4-triazol-3-yl)-2-butanesulfonamide] | 320
4 | COc1cccc(OC)c1-n1c(Cn2ccccc2=O)nnc1NS(=O)(=O)[C@@H](C)[C@H](C)c1ncc(Cl)cn1 [Example 42.0, (2S,3R)-3-(5-chloro-2-pyrimidinyl)-N-(4-(2,6-dimethoxyphenyl)-5-((2-oxo-1(2H)-pyridinyl)methyl)-4H-1,2,4-triazol-3-yl)-2-butanesulfonamide] | 330
5 | COc1cccc(OC)c1-n1c(Cc2cccs2)nnc1NS(=O)(=O)[C@@H](C)[C@H](C)c1ncc(Cl)cn1 [Example 43.0, (2S,3R)-3-(5-chloro-2-pyrimidinyl)-N-(4-(2,6-dimethoxyphenyl)-5-(2-thiophenylmethyl)-4H-1,2,4-triazol-3-yl)-2-butanesulfonamide] | 2.7
6 | COc1cccc(OC)c1-n1c(Cc2nc(C)cs2)nnc1NS(=O)(=O)[C@@H](C)[C@H](C)c1ncc(Cl)cn1 [Example 44.0, (2S,3R)-3-(5-chloro-2-pyrimidinyl)-N-(4-(2,6-dimethoxyphenyl)-5-((4-methyl-1,3-thiazol-2-yl)methyl)-4H-1,2,4-triazol-3-yl)-2-butanesulfonamide] | 36
7 | COc1cccc(OC)c1-n1c(Cc2ccncc2)nnc1NS(=O)(=O)[C@@H](C)[C@H](C)c1ncc(Cl)cn1 [Example 45.0, (2S,3R)-3-(5-chloro-2-pyrimidinyl)-N-(4-(2,6-dimethoxyphenyl)-5-(4-pyridinylmethyl)-4H-1,2,4-triazol-3-yl)-2-butanesulfonamide] | 1.7
8 | COc1cccc(OC)c1-n1c(COc2ccccc2)nnc1NS(=O)(=O)[C@@H](C)[C@H](OC)c1ncc(C)cn1 [Example 48.0, (1R,2S)—N-(4-(2,6-Dimethoxyphenyl)-5-(phenoxymethyl)-4H-1,2,4-triazol-3-yl)-1-methoxy-1-(5-methyl-2-pyrimidinyl)-2-propanesulfonamide] | 440
9 | COc1ccc(Cc2nnc(NS(=O)(=O)[C@@H](C)[C@H](OC)c3ncc(C)cn3)n2-c2c(OC)cccc2OC)cc1 [Example 49.0] | 170
10 | COc1cccc(OC)c1-n1c(Cc2ccc(F)cc2)nnc1NS(=O)(=O)[C@@H](C)[C@H](OC)c1ncc(C)cn1 [Example 50.0] | 940
11 | COc1cccc(OC)c1-n1c(CCN(C)C)nnc1NS(=O)(=O)[C@@H](C)[C@H](OC)c1ncc(C)cn1 [Example 51.0] | 520
12 | COc1cccc(OC)c1-n1c(CN2CCCCCC2=O)nnc1NS(=O)(=O)[C@@H](C)[C@H](OC)c1ncc(C)cn1 [Example 52.0] | 650
13 | COc1cccc(OC)c1-n1c(CCN2CCN(C)CC2)nnc1NS(=O)(=O)[C@@H](C)[C@H](OC)c1ncc(C)cn1 [Example 53.0] | 54
14 | COc1cccc(OC)c1-n1c(Cc2ccccc2)nnc1NS(=O)(=O)[C@@H](C)[C@H](OC)c1ncc(C)cn1 [Example 54.0] | 300
